These results are taken from ChEMBL document CHEMBL3217504, “Potent growth inhibitory activity of ()-platencin towards multi-drug-resistant and extensively drug-resistant Mycobacterium tuberculosis” (2013).

What all share (type): functional
For assay [1], the system named is Mycobacterium tuberculosis. Nature of the assay: Ratio of MBC99.9 to MIC for isoniazid, rifampicin, and rifabutin-resistant Mycobacterium tuberculosis LV2.
Assay [2] relates to Mycobacterium tuberculosis. Put plainly: Antimycobacterial activity against isoniazid, rifampicin, and rifabutin-resistant Mycobacterium tuberculosis LV2 by microbroth dilution method.
In assay [3] the test system is Mycobacterium tuberculosis. Put plainly: Antimycobacterial activity against streptomycin, ethambutol, kanamycin, isoniazid, rifabutin, rifampicin, levofloxacin, and ciprofloxacin-resistant Mycobacterium tuberculosis LV19 by microbroth dilution method.
Assay [4] concerns Mycobacterium tuberculosis. Put plainly: Ratio of MBC99.9 to MIC for streptomycin, ethambutol, kanamycin, isoniazid, rifabutin, rifampicin, levofloxacin, and ciprofloxacin-resistant Mycobacterium tuberculosis LV19.

≈ marks a conversion by molar mass, not a printed value. Some results are limits rather than exact numbers.

`C=C1C[C@@]23C=CC(=O)[C@@](C)(CCC(=O)Nc4c(O)ccc(C(=O)O)c4O)[C@@H]2C[C@@H]1CC3` (racemic) [PLATENCIN]: the Ratio in assay [1] and in assay [4] was >64 each time. For the same compound, the minimum inhibitory concentration (MIC) in assay [2] and in assay [3] was 1 µg/mL (≈ 2.35 µM) throughout.
